Measurements from patent publication US7906283B2, “Methods to identify patients at risk of developing adverse events during treatment with antidepressant medication” (The United States of America as represented by the …, priority 2006, dated 2011).

System: outpatients with major depressive disorder
Assay: STAR*D trial: treatment-emergent suicidal ideation (TESI) by QIDS-SR16 item 12 during citalopram treatment
Type: in vivo, human
Settings: citalopram typically starting at 20 mg/day, up to 14 weeks; comparison group n=1742; 53 participants missing data excluded
Source text: DNA was collected from a clinically-representative cohort of 1938 outpatients with major depressive disorder enrolled in the Sequenced Treatment Alternatives to Relieve Depression (STAR*D) trial. Outpatients 18-75 years of age with a baseline 17-item Hamilton Depression Rating Scale (see Hamilton et al., J. Neurol. Neurosurg. Psychiatry, 23: 56-62 (1960); and Hamilton, Br. J. Soc. Clin. Psychol., 6(4): 278-296 (1967)) (HRSD17) score of ≧14 who met the Diagnostic and Statistical Manual of Mental Disorders (DSM)-IV criteria for non-psychotic major depressive disorder (MDD) were eligible for the trial. […]
The 16-item Quick Inventory of Depressive Symptomatology—Self-report (QIDS-SR16) was used as a measure of symptom severity (see Rush et al., Int. J. Methods Psychiatr. Res., 9: 45-59 (2000): Rush et al., Biol. Psychiatry, 54(5): 573-583 (2003); Trivedi et al., Psychol. Med., 34(1): 73-82 (2004); Rush et al., Neuropsychompharmacology, 30(2): 405-416 (2005); and Rush et al., Biol. Psychiatry, 59(6): 493-501 (2006)) and was obtained at baseline and at each bi-weekly clinic visit. […] Participants who scored “0” on this item before citalopram treatment, but who scored 1, 2, or 3 on the same item at least once while receiving citalopram were defined as TESI cases (n=120). […]

CN(C)CCCC1(c2ccc(F)cc2)OCc2cc(C#N)ccc21 (stereo not shown) [citalopram]
TESI cases (scored 0 on QIDS-SR16 item 12 before citalopram treatment, but 1, 2 or 3 at least once while receiving citalopram): 120 participants
